The values that follow come from US11912703B2, “6-azaindole compounds” (BRISTOL-MYERS SQUIBB COMPANY, priority 2017, dated 2024).

Read-outs that look alike come from different tables or passages of the source.

Experiment [1] addresses human TLR7 (Homo sapiens (Human), UniProt Q9NYK1). In words: TLR7 inhibition reporter assay (HEK-Blue SEAP). It counts as cell-based. The note with it: HEK-Blue cells overexpressing human TLR7, gardiquimod 7.5 μM stimulation.
Experiment [2] deals with human TLR8 (Homo sapiens (Human), UniProt Q9NR97). The experiment can be described thus: TLR8 inhibition reporter assay (HEK-Blue SEAP).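 Also: SEAP driven by IFN-β minimal promoter with five NF-κB and AP-1 sites, compounds tested 0.05 nM to 50 µM, 22 h incubation, inhibition relative to agonist plus DMSO wells.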 In general terms: A reporter such as luciferase makes a cellular process visible.
In experiment [3] the target is human TLR9 (Homo sapiens (Human), UniProt Q9NR96). The experiment can be described thus: TLR9 inhibition reporter assay (HEK-Blue SEAP).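 Also: SEAP driven by IFN-β minimal promoter carrying five NF-κB and AP-1 sites, 22 h at 37 °C, compounds 0.05 nM–50 µM, inhibition scaled between agonist-plus-DMSO and reference-inhibitor wells.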
Where [4] appears, read: read-out: TLR8 IC50; HEK-Blue cells overexpressing human TLR8, R848 15.9 μM stimulation, SEAP reporter.
Setting [5] is: read-out: TLR9 IC50; HEK-Blue cells overexpressing human TLR9, ODN2006 5 nM stimulation, SEAP reporter.
The mark [6] stands for this setting: read-out: TLR8 IC50; HEK-Blue cells overexpressing human TLR8; R848 15.9 μM stimulation; SEAP reporter.
The mark [7] stands for this setting: read-out: TLR9 IC50; HEK-Blue cells overexpressing human TLR9; ODN2006 5 nM stimulation; SEAP reporter.

Chain of human TLR7 (Q9NYK1 27-1049): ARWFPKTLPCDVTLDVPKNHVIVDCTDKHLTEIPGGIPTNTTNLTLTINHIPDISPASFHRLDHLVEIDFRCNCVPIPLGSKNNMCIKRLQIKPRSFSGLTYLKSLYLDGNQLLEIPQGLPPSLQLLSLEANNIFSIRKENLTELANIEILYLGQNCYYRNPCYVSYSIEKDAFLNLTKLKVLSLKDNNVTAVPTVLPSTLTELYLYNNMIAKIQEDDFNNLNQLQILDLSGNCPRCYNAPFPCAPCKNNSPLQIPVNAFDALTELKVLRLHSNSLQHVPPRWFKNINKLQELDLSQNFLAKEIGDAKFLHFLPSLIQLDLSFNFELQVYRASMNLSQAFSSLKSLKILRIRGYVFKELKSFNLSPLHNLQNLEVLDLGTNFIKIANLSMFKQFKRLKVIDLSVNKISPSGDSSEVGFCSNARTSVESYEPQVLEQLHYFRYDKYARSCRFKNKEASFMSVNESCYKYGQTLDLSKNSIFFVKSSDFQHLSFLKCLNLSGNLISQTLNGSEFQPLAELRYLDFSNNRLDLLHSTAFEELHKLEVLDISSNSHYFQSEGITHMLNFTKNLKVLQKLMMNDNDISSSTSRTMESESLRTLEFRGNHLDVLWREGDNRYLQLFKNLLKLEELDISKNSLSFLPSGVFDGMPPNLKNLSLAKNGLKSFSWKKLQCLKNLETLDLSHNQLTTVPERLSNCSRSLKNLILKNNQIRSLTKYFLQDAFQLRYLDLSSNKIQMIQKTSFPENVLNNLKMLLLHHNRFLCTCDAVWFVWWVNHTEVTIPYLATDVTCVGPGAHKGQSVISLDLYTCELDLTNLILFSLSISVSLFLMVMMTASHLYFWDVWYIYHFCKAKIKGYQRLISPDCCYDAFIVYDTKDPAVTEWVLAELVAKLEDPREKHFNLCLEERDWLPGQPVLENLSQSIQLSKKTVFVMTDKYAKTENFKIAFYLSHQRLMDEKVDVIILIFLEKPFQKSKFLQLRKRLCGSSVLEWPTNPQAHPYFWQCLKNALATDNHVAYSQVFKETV
Chain of human TLR9 (Q9NR96 26-1032): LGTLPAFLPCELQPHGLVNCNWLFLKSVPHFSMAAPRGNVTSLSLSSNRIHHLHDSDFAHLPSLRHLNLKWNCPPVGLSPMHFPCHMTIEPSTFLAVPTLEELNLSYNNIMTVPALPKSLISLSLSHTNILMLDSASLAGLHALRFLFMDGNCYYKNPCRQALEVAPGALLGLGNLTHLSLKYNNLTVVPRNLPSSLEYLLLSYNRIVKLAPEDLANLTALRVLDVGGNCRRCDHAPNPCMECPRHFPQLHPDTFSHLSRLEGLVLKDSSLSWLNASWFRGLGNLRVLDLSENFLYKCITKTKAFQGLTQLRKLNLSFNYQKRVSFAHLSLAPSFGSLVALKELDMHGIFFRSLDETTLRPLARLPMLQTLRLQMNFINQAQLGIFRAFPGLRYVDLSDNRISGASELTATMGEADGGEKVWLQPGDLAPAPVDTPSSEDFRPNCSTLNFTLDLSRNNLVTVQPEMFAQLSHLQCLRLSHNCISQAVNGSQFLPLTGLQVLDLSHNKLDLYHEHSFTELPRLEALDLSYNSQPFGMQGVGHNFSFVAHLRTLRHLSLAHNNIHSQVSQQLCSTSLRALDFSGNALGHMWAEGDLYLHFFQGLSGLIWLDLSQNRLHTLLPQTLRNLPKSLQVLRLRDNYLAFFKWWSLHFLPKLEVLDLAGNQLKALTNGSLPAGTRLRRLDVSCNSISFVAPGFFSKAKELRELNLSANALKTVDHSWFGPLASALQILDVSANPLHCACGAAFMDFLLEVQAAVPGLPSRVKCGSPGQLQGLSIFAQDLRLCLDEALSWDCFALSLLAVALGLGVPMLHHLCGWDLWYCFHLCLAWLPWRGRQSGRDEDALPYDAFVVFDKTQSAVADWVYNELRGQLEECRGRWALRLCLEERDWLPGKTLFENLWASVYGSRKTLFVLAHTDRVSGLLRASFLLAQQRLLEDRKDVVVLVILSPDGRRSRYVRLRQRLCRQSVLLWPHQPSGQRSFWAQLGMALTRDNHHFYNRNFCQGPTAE
Chain of human TLR8 (Q9NR97 27-1041): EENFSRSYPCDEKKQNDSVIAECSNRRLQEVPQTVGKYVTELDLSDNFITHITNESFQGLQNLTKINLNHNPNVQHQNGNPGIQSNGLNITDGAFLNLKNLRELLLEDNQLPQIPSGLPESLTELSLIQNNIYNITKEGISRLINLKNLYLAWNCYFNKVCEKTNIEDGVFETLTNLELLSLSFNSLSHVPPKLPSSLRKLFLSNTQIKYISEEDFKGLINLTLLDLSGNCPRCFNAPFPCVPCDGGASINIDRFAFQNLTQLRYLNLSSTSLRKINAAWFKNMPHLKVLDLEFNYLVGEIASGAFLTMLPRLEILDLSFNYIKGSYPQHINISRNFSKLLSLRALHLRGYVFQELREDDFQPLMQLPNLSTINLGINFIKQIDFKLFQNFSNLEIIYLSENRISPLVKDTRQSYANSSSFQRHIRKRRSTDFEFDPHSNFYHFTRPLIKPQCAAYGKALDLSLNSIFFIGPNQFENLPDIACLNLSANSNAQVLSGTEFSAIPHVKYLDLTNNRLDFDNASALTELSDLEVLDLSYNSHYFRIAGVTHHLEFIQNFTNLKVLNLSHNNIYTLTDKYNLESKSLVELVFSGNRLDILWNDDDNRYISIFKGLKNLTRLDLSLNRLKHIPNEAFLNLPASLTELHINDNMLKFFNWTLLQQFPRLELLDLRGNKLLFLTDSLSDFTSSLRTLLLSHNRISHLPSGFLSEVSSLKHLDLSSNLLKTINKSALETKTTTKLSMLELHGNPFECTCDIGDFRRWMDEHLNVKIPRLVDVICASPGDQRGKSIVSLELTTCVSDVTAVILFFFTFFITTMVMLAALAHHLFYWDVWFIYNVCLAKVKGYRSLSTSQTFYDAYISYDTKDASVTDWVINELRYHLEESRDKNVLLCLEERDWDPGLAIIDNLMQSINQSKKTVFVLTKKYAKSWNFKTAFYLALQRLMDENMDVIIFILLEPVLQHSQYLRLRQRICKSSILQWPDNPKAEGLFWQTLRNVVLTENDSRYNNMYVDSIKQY

As a reminder, the IC50 is the midpoint of a concentration-inhibition curve. With `Cc1c(N2CCC(N3CCOCC3)CC2)ncc2[nH]c(-c3cc(C)c4ncnn4c3)c(C(C)C)c12` [Example 282], the IC50 was found to be 1.1 nM in experiment [1], 0.97 nM in experiment [2] (setting [4]) and 1070 nM in experiment [3] (setting [5]).
`Cc1cc(-c2[nH]c3cnc(N4CCC(N(C)CC(=O)N(C)C)CC4)c(F)c3c2C(C)C)cn2ncnc12` [Example 45]: the concentration for half-maximal inhibition (IC50) was found to be 2.2 nM in experiment [1], 1.9 nM in experiment [2] (setting [4]) and 2770 nM in experiment [3] (setting [5]).
Regarding `Cc1c(-c2[nH]c3cnc(N4CCN(CCS(C)(=O)=O)C[C@H]4C)c(F)c3c2C(C)C)cn2ncnc2c1C` [Example 463], the IC50 is 9 nM in experiment [1], 5.2 nM in experiment [2] (setting [6]) and 38800 nM in experiment [3] (setting [7]).
As to `COc1cc(-c2[nH]c3cnc(C4CCC(NCC5(C)COC5)C4)cc3c2C(C)C)cn2ncnc12` (centres unmarked) [Example 59], the IC50 in experiment [1] turned out to be 15 nM; in experiment [2] (setting [4]), 4.7 nM; in experiment [3] (setting [5]) it was 197 nM.
Regarding `Cc1c(-c2[nH]c3cnc(N4CCN(C)C[C@H]4C)c(F)c3c2C(C)C)cn2ncnc2c1C` [Example 454], the results for the IC50 in experiment [1], in experiment [2] (setting [6]) and in experiment [3] (setting [7]) were 0.05 nM, 0.05 nM and 10900 nM, respectively.
As to `COc1cc(-c2[nH]c3cnc(C4CCC(NC5COC5)C4)cc3c2C(C)C)cn2ncnc12` (centres unmarked) [Example 178], the half-inhibitory concentration (IC50) was 7 nM in experiment [1], 2.7 nM in experiment [2] (setting [4]) and 321 nM in experiment [3] (setting [5]).
As to `Cc1c(-c2[nH]c3cnc(C4CCC(NCC(C)(C)C)CC4)c(F)c3c2C(C)C)cn2ncnc2c1C` (centres unmarked) [Example 234], the IC50 in experiment [1] worked out at 13 nM; in experiment [2] (setting [4]) it was 2.6 nM; in experiment [2] (setting [6]), 2.6 nM; in experiment [3] (setting [5]), 733 nM; in experiment [3] (setting [7]) it was 733 nM.
As for `COc1cc(-c2[nH]c3cnc(N4CCNCC4)c(Cl)c3c2C(C)C)cn2ncnc12` [Example 6, 6-(4-chloro-3-isopropyl-5-(piperazin-1-yl)-1H-pyrrolo[2,3-c]pyridin-2-yl)-8-methoxy-[1,2,4]triazolo[1,5-a]pyridine], the values for the IC50 in experiment [1], in experiment [2] and in experiment [3] were 0.61 nM, 1.4 nM and 664 nM, respectively.
`Cc1c(-c2[nH]c3cnc(C4CCC(N(C)C(C)C)CC4)c(F)c3c2C(C)C)cn2ncnc2c1C` (centres unmarked) [Example 168]: the IC50 amounted to 3.6 nM in experiment [1], 4.5 nM in experiment [2] (setting [4]) and 17500 nM in experiment [3] (setting [5]).
With `CCN1CC2(C1)CN(c1ncc3[nH]c(-c4cn5ncnc5c(C)c4C)c(C(C)C)c3c1F)C2` [Example 408], the figures for the IC50 in experiment [1], in experiment [2] (setting [4]) and in experiment [3] (setting [5]) were 16 nM, 61 nM and 12400 nM, respectively.
In the case of `COc1cc(-c2[nH]c3cnc(N4CCC(NC5(C)COC5)CC4)c(F)c3c2C(C)C)cn2ncnc12` [Example 188], the values for the IC50 in experiment [1], in experiment [2] (setting [4]) and in experiment [3] (setting [5]) were 1.6 nM, 0.21 nM and 5160 nM, respectively.
The like results for `COc1cc(-c2[nH]c3cnc(C4CCC(NC5COC5)C4)cc3c2C(C)C)cn2ncnc12` (centres unmarked) [Example 274] were, in that order, 42 nM, 35 nM and 648 nM.
Regarding `COc1cc(-c2[nH]c3cnc(N4CCC(NC(C)C)CC4)c(F)c3c2C(C)C)cn2ncnc12` [Example 157], the IC50 worked out at 0.8 nM in experiment [1], 0.51 nM in experiment [2] (setting [4]) and 4180 nM in experiment [3] (setting [5]).
The like results for `COc1cc(-c2[nH]c3cnc(C4CCNCC4)c(F)c3c2C(C)C)cn2ncnc12` [Example 3, 6-(4-fluoro-3-isopropyl-5-(piperidin-4-yl)-1H-pyrrolo[2,3-c]pyridin-2-yl)-8-methoxy-[1,2,4]triazolo[1,5-a]pyridine] were, in that order, 3.2 nM, 11 nM and 1580 nM.
Take `COc1cc(-c2[nH]c3cnc(N4CC5(CN(CC6CCOCC6)C5)C4)c(F)c3c2C(C)C)cn2ncnc12` [Example 371]: the IC50 in experiment [1] worked out at 9 nM; in experiment [2] (setting [4]), 5.9 nM; in experiment [3] (setting [5]) it was 5480 nM.
In the case of `COc1cc(-c2[nH]c3cnc(C4CCC(NCC(C)(C)C)CC4)c(F)c3c2C(C)C)cn2ncnc12` (centres unmarked) [Example 229], the IC50 in experiment [1] worked out at 8.7 nM; in experiment [2] (setting [6]), 4.2 nM; in experiment [3] (setting [7]) it was 1460 nM.
